Experimental data from US9113629B2, “4-amino-6-(4-substituted-phenyl)-picolinates and 6-amino-2-(4-substituted-phenyl)-pyrimidine-4-carboxylates and their use as herbicides” (DOW AGROSCIENCES LLC, priority 2013, dated 2015).
Like-named read-outs stand apart in the source and are kept apart here.

How the values were obtained:
[1] = test system: Key Grass and Sedge Weeds as well as Grass Crops; test: Post-emergent Test II herbicidal activity (Table 6); type: in vivo; conditions: post-emergence, 336 h; for pest or weed control at 70 g/ha: 70 g ai/ha; for pest or weed control at 140 g/ha: 140 g ai/ha
How it was run: (§1)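 Plants grown in Metro-Mix 360 (pH 6.0–6.8) in a greenhouse (~15 h photoperiod, 23–29 °C day) to first or second true leaf stage, then sprayed with compound in acetone/DMSO/aqueous crop-oil-surfactant carrier at 187 L/ha by track sprayer. Injury visually scored 0–100% versus untreated plants after 14 d.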

[2] = test system: Key Broadleaf Weed and Crop Species; test: Post-emergent Test II herbicidal activity (Table 5); type: in vivo; conditions: post-emergence, 336 h, 14 days after application; for pest or weed control at 70 g/ha: application rate 70 g ai/ha; for pest or weed control at 140 g/ha: application rate 140 g ai/ha
How it was run: as §1

[3] = CYPES: yellow nutsedge (Cyperus esculentus), read-out: Visual Growth Reduction (%) 14 Days After Application, CYPES
[4] = DIGSA: crabgrass (Digitaria sanguinalis), read-out: Visual Growth Reduction (%) 14 Days After Application, DIGSA
[5] = ECHCG: barnyardgrass (Echinochloa crus-galli), read-out: Visual Growth Reduction (%) 14 Days After Application, ECHCG
[6] = ORYSA: rice (Oryza sativa), crop, read-out: Visual Growth Reduction (%) 14 Days After Application, ORYSA
[7] = SETFA: giant foxtail (Setaria faberi), read-out: Visual Growth Reduction (%) 14 Days After Application, SETFA
[8] = SORVU: grain sorghum (Sorghum vulgare), read-out: Visual Growth Reduction (%) 14 Days After Application, SORVU
[9] = TRZSS (wheat, Triticum aestivum), crop, read-out: Visual Growth Reduction (%) 14 Days After Application, TRZSS
[10] = ZEAMX: maize, corn (Zea mays), crop, read-out: Visual Growth Reduction (%) 14 Days After Application, ZEAMX
[11] = ABUTH: velvetleaf (Abutilon theophrasti), read-out: Visual Growth Reduction (%) 14 Days After Application, ABUTH
[12] = AMARE: redroot pigweed (Amaranthus retroflexus), read-out: Visual Growth Reduction (%) 14 Days After Application, AMARE
[13] = BRSNN: oilseed-rape, canola (Brassica napus), read-out: Visual Growth Reduction (%) 14 Days After Application, BRSNN
[14] = CHEAL: lambsquarters (Chenopodium album), read-out: Visual Growth Reduction (%) 14 Days After Application, CHEAL
[15] = EPHHL: wild poinsettia (Euphorbia heterophylla), read-out: Visual Growth Reduction (%) 14 Days After Application, EPHHL
[16] = HELAN: sunflower (Helianthus annuus), read-out: Visual Growth Reduction (%) 14 Days After Application, HELAN
[17] = VIOTR: wild pansy (Viola tricolor), read-out: Visual Growth Reduction (%) 14 Days After Application, VIOTR

COC(=O)c1nc(-c2ccc(Br)c(F)c2F)c(F)c(N)c1Cl [Compound 109, methyl 4-amino-6-(4-bromo-2,3-difluorophenyl)-3-chloro-5-fluoropicolinate]
pest or weed control at 70 g/ha [1, 3]: 95 to 100% | pest or weed control at 140 g/ha [1, 3]: 95 to 100% | pest or weed control at 70 g/ha [1, 4]: 85 to 94% | pest or weed control at 140 g/ha [1, 4]: 95 to 100% | pest or weed control at 70 g/ha [1, 5]: 95 to 100% | pest or weed control at 140 g/ha [1, 5]: 95 to 100% | pest or weed control at 70 g/ha [1, 6]: 45 to 59% | pest or weed control at 140 g/ha [1, 6]: 45 to 59% | pest or weed control at 70 g/ha [1, 7]: 95 to 100% | pest or weed control at 140 g/ha [1, 7]: 95 to 100% | pest or weed control at 70 g/ha [1, 8]: 85 to 94% | pest or weed control at 140 g/ha [1, 8]: 95 to 100% | pest or weed control at 70 g/ha [1, 9]: 45 to 59% | pest or weed control at 140 g/ha [1, 9]: 60 to 74% | pest or weed control at 70 g/ha [1, 10]: 85 to 94% | pest or weed control at 140 g/ha [1, 10]: 85 to 94% | pest or weed control at 70 g/ha [2, 11]: 95 to 100% | pest or weed control at 140 g/ha [2, 11]: 95 to 100% | pest or weed control at 70 g/ha [2, 12]: 95 to 100% | pest or weed control at 140 g/ha [2, 12]: 95 to 100% | pest or weed control at 70 g/ha [2, 13]: 95 to 100% | pest or weed control at 140 g/ha [2, 13]: 95 to 100% | pest or weed control at 70 g/ha [2, 14]: 95 to 100% | pest or weed control at 140 g/ha [2, 14]: 95 to 100% | pest or weed control at 70 g/ha [2, 15]: 95 to 100% | pest or weed control at 140 g/ha [2, 15]: 95 to 100% | pest or weed control at 70 g/ha [2, 16]: 0 to 29% | pest or weed control at 140 g/ha [2, 16]: 95 to 100% | pest or weed control at 70 g/ha [2, 17]: 95 to 100% | pest or weed control at 140 g/ha [2, 17]: 95 to 100%
